A short description of the series: bioequivalence of solid formulations of Compound 2. The class given is in vivo. Particulars: 250 mg in improved solid formulation (increased binder, e.g. copovidone) versus 400 mg in original formulation. From the text: Accordingly, in one aspect, the present technology features a method of treating HCV infection, comprising administering to a patient in need thereof an effective amount of a combination of two or more DAAs. […] The DAAs can be administered at the same or different dosing frequencies. The patient being treated can be a treatment naïve patient, a treatment experienced patient, including, but not limited to, a relapser, an interferon partial responder, or an interferon non-responder; or a patient unable to take interferon. The patient may be infected with, for example and without limitation, HCV genotype 1, such as HCV genotype 1a or HCV genotype 1b; or HCV genotype 2 or 3. The treatment according to this aspect of the technology may also be effective against other HCV genotypes. The DAAs can be administered around the same time or at different times, and can be co-formulated in a single formulation or formulated in different compositions. Each DAA can be selected from HCV protease inhibitors, HCV polymerase inhibitors, or HCV NS5A inhibitors. […]

Regarding `COc1c(-c2ccc3cc(NS(C)(=O)=O)ccc3c2)cc(-n2ccc(=O)[nH]c2=O)cc1C(C)(C)C` [Compound 2, N-(6-(3-tert-butyl-5-(2,4-dioxo-3,4-dihydropyrimidin-1(2H)-yl)-2-methoxyphenyl)naphthalen-2-yl)methanesulfonamide], the bioequivalence of formulations entry is given as “bioequivalent”.

The record behind these values is patent US8809265B2, “Methods for treating HCV” (AbbVie Inc., priority 2011, dated 2014).
